Assay results: patent US20260200890A1, “ADAR1 INHIBITORS AND METHODS OF USING THE SAME” (AVAMMUNE THERAPEUTICS INC., priority 2022, published 2026)

Molecular target: T1, ADAR1 (Homo sapiens, UniProt P55265)
T1 construct: endogenous in cells; host or cells: p110 KO A549 dual cells
T1 sequence (P55265 1-1226): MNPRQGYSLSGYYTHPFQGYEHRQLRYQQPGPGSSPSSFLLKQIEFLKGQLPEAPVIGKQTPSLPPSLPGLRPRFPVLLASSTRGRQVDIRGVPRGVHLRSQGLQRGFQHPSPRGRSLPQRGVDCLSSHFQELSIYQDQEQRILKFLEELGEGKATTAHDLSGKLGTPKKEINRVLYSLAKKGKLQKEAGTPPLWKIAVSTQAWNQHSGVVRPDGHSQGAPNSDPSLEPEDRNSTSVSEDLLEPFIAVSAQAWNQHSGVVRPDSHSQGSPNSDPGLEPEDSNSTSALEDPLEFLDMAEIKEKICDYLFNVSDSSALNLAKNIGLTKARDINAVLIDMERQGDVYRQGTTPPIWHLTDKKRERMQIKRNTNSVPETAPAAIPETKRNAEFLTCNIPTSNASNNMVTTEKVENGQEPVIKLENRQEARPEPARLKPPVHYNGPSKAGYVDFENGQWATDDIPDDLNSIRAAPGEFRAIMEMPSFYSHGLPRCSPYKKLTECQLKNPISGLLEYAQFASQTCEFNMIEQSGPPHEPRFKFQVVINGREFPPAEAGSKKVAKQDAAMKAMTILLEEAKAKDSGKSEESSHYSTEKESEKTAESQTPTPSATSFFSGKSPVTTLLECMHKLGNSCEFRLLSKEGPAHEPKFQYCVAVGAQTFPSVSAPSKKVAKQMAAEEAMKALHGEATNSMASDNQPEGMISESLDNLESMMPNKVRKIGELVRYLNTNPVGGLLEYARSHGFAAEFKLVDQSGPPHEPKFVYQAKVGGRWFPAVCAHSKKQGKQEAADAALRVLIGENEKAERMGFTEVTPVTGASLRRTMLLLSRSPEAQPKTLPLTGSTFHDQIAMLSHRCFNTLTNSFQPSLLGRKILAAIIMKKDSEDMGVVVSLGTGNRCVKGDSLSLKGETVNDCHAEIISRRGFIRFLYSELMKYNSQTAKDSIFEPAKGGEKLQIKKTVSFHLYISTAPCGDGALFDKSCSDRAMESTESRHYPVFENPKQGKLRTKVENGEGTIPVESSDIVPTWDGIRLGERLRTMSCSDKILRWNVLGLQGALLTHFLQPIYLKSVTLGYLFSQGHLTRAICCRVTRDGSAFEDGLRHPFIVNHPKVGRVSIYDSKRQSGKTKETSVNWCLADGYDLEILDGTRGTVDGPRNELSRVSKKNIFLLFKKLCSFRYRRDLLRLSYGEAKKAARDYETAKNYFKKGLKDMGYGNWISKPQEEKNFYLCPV
Test: ADAR1 Inhibition Assay (IFN fold-induction, Quanti-Luc luminescence, p110 KO A549 dual cells)
Type: cell-based
Conditions: IFN fold-induction vs DMSO, 24 and 48 h
Method in brief: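 EC50 derived from IFN fold-induction, calculated as sample RLU over average DMSO RLU. Luminescence measured by Quanti-Luc on samples taken after 24 and 48 h of compound exposure (1% DMSO final, 37 °C, 5% CO2). Cells were p110 KO A549 dual, seeded at 20,000 per well in supplemented DMEM.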

Row | SMILES | EC50 [µM]
1 | CS(=O)(=O)Nc1cccc(C(=O)OCCNC(=O)c2csc(-c3ccccc3)c2)c1 [Compound 271] | > 100
2 | CCOC(=O)c1cc(-c2ccccc2)sc1NC(=O)c1nncn1-c1cccc(NS(C)(=O)=O)c1 [Compound 272] | > 100
3 | CCOC(=O)c1cc(-c2ccccc2)sc1NC(=O)c1nn(-c2cccc(NS(C)(=O)=O)c2)c(=O)cc1C [Compound 273] | > 100
4 | CCOC(=O)c1cc(-c2ccccc2)sc1NC(=O)NS(=O)(=O)c1cccc(NS(C)(=O)=O)c1 [Compound 275] | > 100
5 | CCOC(=O)c1cc(-c2ccccc2)sc1NC(=O)CCOc1cccc(NS(C)(=O)=O)c1 [Compound 276] | > 100
6 | CCOC(=O)c1ccncc1NC(=O)COC(=O)c1cccc(NS(C)(=O)=O)c1 [Compound 277] | > 100
7 | CCOC(=O)c1cc(C2=CCN(C)CC2)sc1NC(=O)COC(=O)c1cccc(NS(C)(=O)=O)c1 [Compound 278] | > 100
8 | CCOC(=O)c1cc(-c2ccccc2)sc1N1CCN(C(=O)c2cccc(NS(C)(=O)=O)c2)CC1 [Compound 279] | > 100
9 | CCOC(=O)c1cc(-c2ccccc2)sc1NC(=O)CN1CCN(c2cccc(NS(C)(=O)=O)c2)CC1 [Compound 280] | > 100
10 | CS(=O)(=O)Nc1cccc(C(=O)NNC(=O)c2csc(-c3ccccc3)c2)c1 [Compound 281] | > 100
11 | CCOC(=O)c1cc(-c2ccccc2)sc1NC(=O)CONC(=O)c1cccc(NS(C)(=O)=O)c1 [Compound 282] | > 100
12 | CCOC(=O)c1cc(-c2ccccc2)sc1NC(=O)CO/N=C/c1cccc(NS(C)(=O)=O)c1 [Compound 283] | > 100
13 | C=CC(=O)Nc1cccc(C(=O)OCC(=O)Nc2sc(-c3ccccc3)cc2C(=O)OCC)c1 [Compound 284] | > 100
14 | CCOC(=O)c1cc(-c2ccccc2)sc1NC(=O)C1CCC(NC(=O)c2cccc(NS(C)(=O)=O)c2)CC1 (centres unmarked) [Compound 285] | > 100
15 | CS(=O)(=O)Nc1cccc(-c2nc3sc(-c4ccccc4)cc3c(=O)[nH]2)c1 [Compound 286] | > 100
16 | CCOC(=O)c1c(NC(=O)COC(=O)c2cccc(NS(C)(=O)=O)c2)sc(N2CCOCC2)c1C [Compound 287] | > 100
17 | CCOC(=O)c1cc(-c2ccccc2)sc1NC(=O)Cn1nc(-c2cccc(NS(C)(=O)=O)c2)oc1=O [Compound 288] | > 100
18 | CS(=O)(=O)Nc1cccc(C(=O)OCCNC(=O)c2cc(-c3ccccc3)sc2N)c1 [Compound 289] | > 100
19 | CCOC(=O)c1cc(-c2ccccc2)sc1NC(=O)OCc1nnc(-c2cccc(NS(C)(=O)=O)c2)o1 [Compound 290] | > 100
20 | CCOC(=O)c1cc(-c2ccccc2)sc1NC(=O)CN1C(=O)COc2ccc(NS(C)(=O)=O)cc21 [Compound 291] | > 100
21 | CCOC(=O)c1cc(C2CCNCC2)sc1NC(=O)COC(=O)c1cccc(NS(C)(=O)=O)c1 [Compound 295] | > 100
22 | CCOC(=O)c1cc(-c2ccccc2)sc1NC(=O)COC(=O)c1cccc(NS(=O)(=O)c2ccn(C)n2)c1 [Compound 296] | ≤ 25
23 | CCOC(=O)c1cc(-c2ccccc2)sc1NC(=O)CS(=O)(=O)c1cccc(NS(C)(=O)=O)c1 [Compound 297] | > 100
24 | CCOC(=O)c1cnc(NC(=O)COC(=O)c2cccc(NS(C)(=O)=O)c2)nc1-c1ccccc1 [Compound 298] | > 100
25 | CCOC(=O)c1cc(-c2ccccc2)sc1NC(=O)COC(=O)c1cccc(B(O)O)c1 [Compound 299] | > 100
26 | CCOC(=O)c1cc(-c2ccccc2)sc1NC(=O)COc1cc(C(F)(F)F)nc(NS(C)(=O)=O)n1 [Compound 300] | > 100
27 | CCOC(=O)c1cc(-c2ccccc2)oc1NC(=O)COC(=O)c1cccc(NS(C)(=O)=O)c1 [Compound 301] | 50 to 100

Row | SMILES | EC50 [µM]
28 | CCOC(=O)c1cc(-c2ccccc2)sc1NC(=O)CCC(=O)c1cccc(NS(C)(=O)=O)c1 [Compound 303] | 50 to 100
29 | CCOC(=O)c1cc(-c2ccc3c(cnn3C)c2)sc1NC(=O)COC(=O)c1cccc(NS(C)(=O)=O)c1 [Compound 305] | 50 to 100
30 | COC(=O)c1sccc1NC(=O)COC(=O)c1cccc(NS(C)(=O)=O)c1 [Compound 306] | > 100
31 | CCOC(=O)c1cc(-c2ccccc2)sc1S(=O)(=O)N1CCN(S(C)(=O)=O)CC1 [Compound 307] | > 100
32 | CCOC(=O)c1cc(-c2ccccc2)sc1S(=O)(=O)N1CCN(C(=O)c2cccc(NS(C)(=O)=O)c2)CC1 [Compound 309] | 50 to 100
33 | COC(=O)c1sc(-c2ccccc2)cc1NC(=O)COC(=O)c1cccc(NS(C)(=O)=O)c1 [Compound 311] | ≤ 25
34 | CCOC(=O)c1cc(-c2ccccc2)sc1NC(=O)CC(=O)Nc1cccc(NS(C)(=O)=O)c1 [Compound 312] | 50 to 100
35 | CCOC(=O)c1cc(-c2ccccc2)sc1-c1coc(/C=N\c2cccc(NS(C)(=O)=O)c2)c1 [Compound 313] | > 100
36 | CCOC(=O)c1cc(-c2ccccc2)sc1NC(=O)COC(=O)c1cccc(Br)c1 [Compound 314] | 50 to 100
37 | CCOC(=O)c1cc(Sc2ccccc2)sc1NC(=O)COC(=O)c1cccc(NS(C)(=O)=O)c1 [Compound 315] | > 100
38 | CCOC(=O)c1cc(-c2ccc3c(c2)OCO3)sc1NC(=O)COC(=O)c1cccc(NS(C)(=O)=O)c1 [Compound 316] | > 100
39 | CCOC(=O)c1cc(-c2ccc3c(c2)OCCO3)sc1NC(=O)COC(=O)c1cccc(NS(C)(=O)=O)c1 [Compound 317] | > 100
40 | COC(=O)c1sc(-c2ccccc2)cc1NC(=O)COC(=O)c1cccc(S(N)(=O)=O)c1 [Compound 318] | 50 to 100
41 | CCOC(=O)c1cc(-c2ccccc2)sc1NC(=O)Cn1ccc(=O)c(O)c1C [Compound 319] | > 100
42 | COC(=O)c1scc(-c2ccccc2)c1NC(=O)COC(=O)c1cccc(NS(C)(=O)=O)c1 [Compound 320] | > 100
43 | CCOC(=O)c1cc(-c2ccccc2)sc1NC(=O)COC(=O)c1cccc(NS(=O)(=O)c2c(C)noc2C)c1 [Compound 322] | > 100
44 | CCOC(=O)c1cc(-c2ccccc2)sc1NC(=O)c1cccc(NC(=O)c2cccc(NS(C)(=O)=O)c2)c1 [Compound 323] | > 100
45 | CCOC(=O)c1cc(-c2ccccc2)sc1NC(=O)CCSc1cccc(NS(C)(=O)=O)c1 [Compound 324] | > 100
46 | COC(=O)c1sc(-c2ccccc2)cc1NC(=O)CNC(=O)c1cccc(NS(C)(=O)=O)c1 [Compound 332] | > 100
47 | CCOC(=O)c1cc(-c2ccccc2)sc1NC(=O)C1CCN(C(=O)Cc2cccc(NS(C)(=O)=O)c2)C1 (centres unmarked) [Compound 333] | 50 to 100
48 | CCOC(=O)c1cc(-c2ccccc2)sc1NC(=O)CN1CCN(C(=O)Cc2cccc(NS(C)(=O)=O)c2)CC1 [Compound 334] | > 100
49 | CCOC(=O)c1cc(-c2ccc3c(cnn3C)c2)sc1NC(=O)CNC(=O)Cc1cccc(NS(C)(=O)=O)c1 [Compound 335] | > 100
50 | CCOC(=O)c1cc(-c2ccccc2)sc1NC(=O)CN(C)C(=O)Cc1cccc(NS(C)(=O)=O)c1 [Compound 336] | > 100
51 | CCOC(=O)c1cc(-c2ccccc2)sc1NC(=O)C(C)NC(=O)Cc1cccc(NS(C)(=O)=O)c1 (centres unmarked) [Compound 337] | > 100
52 | CCOC(=O)c1cc(-c2ccccc2)sc1NC(=O)CNC(=O)Cc1cccc(S(C)(=N)=O)c1 (centres unmarked) [Compound 338] | > 100
53 | CCOC(=O)c1cc(-c2ccccc2)sc1NC(=O)CNC(=O)c1ccc2ccn(S(C)(=O)=O)c2c1 [Compound 339] | > 100
